In US8445476B2, “Carbacephem β-lactam antibiotics” (Achaogen, Inc., priority 2007, dated 2013):
In brackets after ≈: the same amount, converted by molar mass.

What was measured:
Type in all cases: cell-based
[1] = system: S. aureus ASAU1043 (MRSA, CIP, ERY, CLI, GEN resistant); assay: MIC assay, S. aureus ASAU1043; conditions: Staphylococcus aureus, read-out: MIC ASAU 1043
Description: (§1) The in vitro MIC for bacterial isolates may be obtained in the following manner: a test compound is incorporated into a series of two-fold dilutions in cation adjusted Mueller-Hinton broth (CAMHB). Different bacterial strains diluted to provide a uniform inoculum are added to the CAMHB containing test compounds. A well without test compound is included for each strain as a growth control. […] The procedures used in these experiments are generally those standardized by the Clinical and Laboratory Standards Institute (CLSI), as set forth in the CLSI publication entitled “M7-A7. Methods for dilution antimicrobial susceptibility tests for bacteria that grow aerobically; approved standard-seventh edition.” (2006), which is incorporated by reference as if fully set forth herein. The following exemplifies such a procedure although it is to be understood that modifications of the procedure may be implemented as required.
(§2) Two-fold dilutions of the test compounds are prepared in CAMHB at 2× the concentration range to be tested if the compounds are soluble in aqueous solution. Alternately, dimethylsulfoxide (DMSO) is used to prepare two-fold dilutions at 10× the concentration range to be tested. Reference drugs such as cefotaxime, vancomycin or imipenem are used as positive controls. A few isolated colonies are retrieved from a pure culture prepared on an agar plate and suspended in PBS until the turbidity of the suspension matches a 0.5 McFarland standard which is equal to approximately 10^8 sCFU/mL. This solution is further diluted in CAMHB to 10^6CFU/mL if compounds are diluted in CAMHB and 5×10^5 CFU/mL if compounds are diluted in DMSO. The CAMHB plates containing the compound dilutions are combined in equal volumes with the higher density inoculum, or 10 μL of the DMSO dilutions are added to the lower density inoculum. When S. aureus is the organism being tested and the compound is oxacillin, a beta-lactam or a carbacephem compound of the present invention, 2% NaCl is added to the growth media. The plates are then incubated for 16-20 hours at 35° C. The plates are then observed to determine which concentration of the test compound is the MIC.

[2] = system: S. aureus ASAU1028 (CA-MRSA, USA400); assay: MIC assay, S. aureus ASAU1028; conditions: Staphylococcus aureus, read-out: MIC ASAU 1028
Description: as §1, §2

[3] = system: S. aureus ASAU1033 (MRSA, CIP, ERY, CLIN, TET, GEN resistant); assay: MIC assay, S. aureus ASAU1033; conditions: Staphylococcus aureus, read-out: MIC ASAU 1033
Description: as §1, §2

[4] = system: S. aureus ASAU1029 (CA-MRSA, USA300); assay: MIC assay, S. aureus ASAU1029; conditions: Staphylococcus aureus, read-out: MIC ASAU 1029
Description: as §1, §2

[5] = system: S. aureus ASAU001 (Susceptible Organism ATCC 29213); assay: MIC assay, S. aureus ASAU001; conditions: Staphylococcus aureus, ATCC29213, read-out: MIC ASAU 001
Description: as §1, §2

Row | SMILES | MIC [1] | MIC [2] | MIC [3] | MIC [4] | MIC [5]
1 | CO/N=C(\C(=O)N[C@@H]1C(=O)N2C(C(=O)O)=C(Sc3nc(C)c(C)s3)CC[C@H]12)c1nc(N)sc1Cl [38/1, (6R,7S,Z)-7-(2-(2-amino-5-chlorothiazol-4-yl)-2-(methoxyimino)acetamido)-3-(4,5-dimethylthiazol-2-ylthio)-8-oxo-1-aza-bicyclo[4.2.0]oct-2-ene-2-carboxylic Acid] | > 8 µg/mL | ≤ 1 µg/mL | 1 to 8 µg/mL (≈ 1.84 to 14.7 µM) | ≤ 1 µg/mL | ≤ 1 µg/mL
2 | NCCc1ncccc1SC1=C(C(=O)O)N2C(=O)[C@@H](NC(=O)/C(=N\O)c3nc(N)sc3Cl)[C@H]2CC1 [32/1, (6R,7S,Z)-7-(2-(2-amino-5-chlorothiazol-4-yl)-2-(hydroxyimino)acetamido)-3-(2-(2-aminoethyl)pyridin-3-ylthio)-8-oxo-1-aza-bicyclo[4.2.0]oct-2-ene-2-carboxylic Acid] | > 8 µg/mL |  | 1 to 8 µg/mL (≈ 1.86 to 14.9 µM) | > 8 µg/mL | ≤ 1 µg/mL
3 | Nc1nc(/C(=N/O)C(=O)N[C@@H]2C(=O)N3C(C(=O)O)=C(Sc4cccnc4CSC4CCNC4)CC[C@H]23)c(Cl)s1 (stereo partly drawn) [30/1, (6R,7S,Z)-7-(2-(2-amino-5-chlorothiazol-4-yl)-2-(hydroxyimino)acetamido)-8-oxo-3-(2-((pyrrolidin-3-ylthio)methyl)pyridin-3-ylthio)-1-aza-bicyclo[4.2.0]oct-2-ene-2-carboxylic acid] | 1 to 8 µg/mL (≈ 1.64 to 13.1 µM) | ≤ 1 µg/mL | 1 to 8 µg/mL (≈ 1.64 to 13.1 µM) | ≤ 1 µg/mL | ≤ 1 µg/mL
4 | Nc1nc(/C(=N/O)C(=O)N[C@@H]2C(=O)N3C(C(=O)O)=C(Sc4cccnc4)CC[C@H]23)c(Cl)s1 [34/1, (6R,7S,Z)-7-(2-(2-amino-5-chlorothiazol-4-yl)-2-(hydroxyimino)acetamido)-8-oxo-3-(pyridin-3-ylthio)-1-aza-bicyclo[4.2.0]oct-2-ene-2-carboxylic Acid] | > 8 µg/mL | 1 to 8 µg/mL (≈ 2.02 to 16.2 µM) | > 8 µg/mL | > 8 µg/mL | ≤ 1 µg/mL
5 | Nc1nc(/C(=N/O)C(=O)N[C@@H]2C(=O)N3C(C(=O)O)=C(Sc4cccnc4N)CC[C@H]23)c(Cl)s1 [28/1, (6R,7S,Z)-7-(2-(2-amino-5-chlorothiazol-4-yl)-2-(hydroxyimino)acetamido)-3-(2-aminopyridin-3-ylthio)-8-oxo-1-aza-bicyclo[4.2.0]oct-2-ene-2-carboxylic Acid] | > 8 µg/mL | ≤ 1 µg/mL | > 8 µg/mL | 1 to 8 µg/mL (≈ 1.96 to 15.7 µM) | ≤ 1 µg/mL
6 | NCc1ncccc1SC1=C(C(=O)O)N2C(=O)[C@@H](NC(=O)/C(=N\O)c3nc(N)sc3Cl)[C@H]2CC1 [31/1, (6R,7S,Z)-7-(2-(2-amino-5-chlorothiazol-4-yl)-2-(hydroxyimino)acetamido)-3-(2-(aminomethyl)pyridin-3-ylthio)-8-oxo-1-aza-bicyclo[4.2.0]oct-2-ene-2-carboxylic Acid] | 1 to 8 µg/mL (≈ 1.91 to 15.3 µM) | ≤ 1 µg/mL | 1 to 8 µg/mL (≈ 1.91 to 15.3 µM) | ≤ 1 µg/mL | ≤ 1 µg/mL
7 | CO/N=C(\C(=O)N[C@@H]1C(=O)N2C(C(=O)O)=C(Sc3cccnc3CSCCN)CC[C@H]12)c1nsc(N)n1 [51/1, (6R,7S,Z)-7-(2-(5-amino-1,2,4-thiadiazol-3-yl)-2-(methoxyimino)acetamido)-3-(2-((2-aminoethylthio)methyl)pyridin-3-ylthio)-8-oxo-1-aza-bicyclo[4.2.0]oct-2-ene-2-carboxylic Acid] | > 8 µg/mL | 1 to 8 µg/mL (≈ 1.77 to 14.2 µM) | > 8 µg/mL | 1 to 8 µg/mL (≈ 1.77 to 14.2 µM) | ≤ 1 µg/mL
8 | CNCCSCc1ncccc1SC1=C(C(=O)O)N2C(=O)[C@@H](NC(=O)/C(=N\O)c3nc(N)sc3Cl)[C@H]2CC1 [29/1, (6R,7S,Z)-7-(2-(2-amino-5-chlorothiazol-4-yl)-2-(hydroxyimino)acetamido)-3-(2-((2-(methylamino)ethylthio)methyl)pyridin-3-ylthio)-8-oxo-1-aza-bicyclo[4.2.0]oct-2-ene-2-carboxylic acid] | 1 to 8 µg/mL (≈ 1.67 to 13.4 µM) | ≤ 1 µg/mL | 1 to 8 µg/mL (≈ 1.67 to 13.4 µM) | ≤ 1 µg/mL | ≤ 1 µg/mL
9 | CO/N=C(\C(=O)N[C@@H]1C(=O)N2C(C(=O)O)=C(Sc3ccncc3)CC[C@H]12)c1nsc(N)n1 [53/1, (6R,7S,Z)-7-(2-(5-amino-1,2,4-thiadiazol-3-yl)-2-(methoxyimino)acetamido)-8-oxo-3-(pyridin-4-ylthio)-1-aza-bicyclo[4.2.0]oct-2-ene-2-carboxylic Acid] | > 8 µg/mL | 1 to 8 µg/mL (≈ 2.1 to 16.8 µM) | > 8 µg/mL | 1 to 8 µg/mL (≈ 2.1 to 16.8 µM) | ≤ 1 µg/mL
10 | Nc1nc(/C(=N/O)C(=O)N[C@@H]2C(=O)N3C(C(=O)O)=C(Sc4nncs4)CC[C@H]23)ns1 [46/1, (6R,7S,Z)-3-(1,3,4-thiadiazol-2-ylthio)-7-(2-(5-amino-1,2,4-thiadiazol-3-yl)-2-(hydroxyimino)acetamido)-8-oxo-1-aza-bicyclo[4.2.0]oct-2-ene-2-carboxylic Acid] | > 8 µg/mL | 1 to 8 µg/mL (≈ 2.13 to 17.1 µM) | > 8 µg/mL | ≤ 1 µg/mL | ≤ 1 µg/mL
11 | CO/N=C(\C(=O)N[C@@H]1C(=O)N2C(C(=O)O)=C(Sc3cccnc3CCN)CC[C@H]12)c1nc(N)sc1Cl [39/1, (6R,7S,Z)-7-(2-(2-amino-5-chlorothiazol-4-yl)-2-(methoxyimino)acetamido)-3-(2-(2-aminoethyl)pyridin-3-ylthio)-8-oxo-1-aza-bicyclo[4.2.0]oct-2-ene-2-carboxylic Acid] | > 8 µg/mL | 1 to 8 µg/mL (≈ 1.81 to 14.5 µM) | > 8 µg/mL | 1 to 8 µg/mL (≈ 1.81 to 14.5 µM) | ≤ 1 µg/mL
12 | CO/N=C(\C(=O)N[C@@H]1C(=O)N2C(C(=O)O)=C(Sc3nncs3)CC[C@H]12)c1nsc(N)n1 [50/1, (6R,7S,Z)-3-(1,3,4-thiadiazol-2-ylthio)-7-(2-(5-amino-1,2,4-thiadiazol-3-yl)-2-(methoxyimino)acetamido)-8-oxo-1-aza-bicyclo[4.2.0]oct-2-ene-2-carboxylic Acid] | > 8 µg/mL | 1 to 8 µg/mL (≈ 2.07 to 16.6 µM) | > 8 µg/mL | 1 to 8 µg/mL (≈ 2.07 to 16.6 µM) | ≤ 1 µg/mL
13 | CO/N=C(\C(=O)N[C@@H]1C(=O)N2C(C(=O)O)=C(Sc3ccncc3)CC[C@H]12)c1nc(N)sc1Cl [37/1, (6R,7S,Z)-7-(2-(2-amino-5-chlorothiazol-4-yl)-2-(methoxyimino)acetamido)-8-oxo-3-(pyridin-4-ylthio)-1-aza-bicyclo[4.2.0]oct-2-ene-2-carboxylic Acid] | > 8 µg/mL | 1 to 8 µg/mL (≈ 1.96 to 15.7 µM) | 1 to 8 µg/mL (≈ 1.96 to 15.7 µM) | > 8 µg/mL | ≤ 1 µg/mL
14 | Nc1nc(/C(=N/O)C(=O)N[C@@H]2C(=O)N3C(C(=O)O)=C(Sc4ccncc4)CC[C@H]23)ns1 [44/1, (6R,7S,Z)-7-(2-(5-amino-1,2,4-thiadiazol-3-yl)-2-(hydroxyimino)acetamido)-8-oxo-3-(pyridin-4-ylthio)-1-aza-bicyclo[4.2.0]oct-2-ene-2-carboxylic Acid] | > 8 µg/mL | 1 to 8 µg/mL (≈ 2.17 to 17.3 µM) | > 8 µg/mL | ≤ 1 µg/mL | ≤ 1 µg/mL
15 | CO/N=C(\C(=O)N[C@@H]1C(=O)N2C(C(=O)O)=C(Sc3cccnc3CN)CC[C@H]12)c1nc(N)sc1Cl [43/1, (6R,7S,Z)-7-(2-(2-amino-5-chlorothiazol-4-yl)-2-(methoxyimino)acetamido)-3-(2-(aminomethyl)pyridin-3-ylthio)-8-oxo-1-aza-bicyclo[4.2.0]oct-2-ene-2-carboxylic acid] | > 8 µg/mL | > 8 µg/mL | > 8 µg/mL | > 8 µg/mL | ≤ 1 µg/mL
16 | CO/N=C(\C(=O)N[C@@H]1C(=O)N2C(C(=O)O)=C(Sc3ccncc3CSCCN)CC[C@H]12)c1nsc(N)n1 [52/1, (6R,7S,Z)-7-(2-(5-amino-1,2,4-thiadiazol-3-yl)-2-(methoxyimino)acetamido)-3-(3-((2-aminoethylthio)methyl)pyridin-4-ylthio)-8-oxo-1-aza-bicyclo[4.2.0]oct-2-ene-2-carboxylic acid] | > 8 µg/mL | 1 to 8 µg/mL (≈ 1.77 to 14.2 µM) | 1 to 8 µg/mL (≈ 1.77 to 14.2 µM) | 1 to 8 µg/mL (≈ 1.77 to 14.2 µM) | ≤ 1 µg/mL
17 | CNCCSCc1ncccc1SC1=C(C(=O)O)N2C(=O)[C@@H](NC(=O)/C(=N\OC)c3nc(N)sc3Cl)[C@H]2CC1 [41/1, (6R,7S,Z)-7-(2-(2-amino-5-chlorothiazol-4-yl)-2-(methoxyimino)acetamido)-3-(2-((2-(methylamino)ethylthio)methyl)pyridin-3-ylthio)-8-oxo-1-aza-bicyclo[4.2.0]oct-2-ene-2-carboxylic Acid] | > 8 µg/mL | 1 to 8 µg/mL (≈ 1.63 to 13.1 µM) | > 8 µg/mL |  | ≤ 1 µg/mL
